# pKi: −log10 of the molar value.
# Target: T1, human M4 receptor (Homo sapiens, UniProt P08173)
# T1 construct: expressed in transfected cells; host or cells: CHO cells
# T1 sequence (P08173 1-479): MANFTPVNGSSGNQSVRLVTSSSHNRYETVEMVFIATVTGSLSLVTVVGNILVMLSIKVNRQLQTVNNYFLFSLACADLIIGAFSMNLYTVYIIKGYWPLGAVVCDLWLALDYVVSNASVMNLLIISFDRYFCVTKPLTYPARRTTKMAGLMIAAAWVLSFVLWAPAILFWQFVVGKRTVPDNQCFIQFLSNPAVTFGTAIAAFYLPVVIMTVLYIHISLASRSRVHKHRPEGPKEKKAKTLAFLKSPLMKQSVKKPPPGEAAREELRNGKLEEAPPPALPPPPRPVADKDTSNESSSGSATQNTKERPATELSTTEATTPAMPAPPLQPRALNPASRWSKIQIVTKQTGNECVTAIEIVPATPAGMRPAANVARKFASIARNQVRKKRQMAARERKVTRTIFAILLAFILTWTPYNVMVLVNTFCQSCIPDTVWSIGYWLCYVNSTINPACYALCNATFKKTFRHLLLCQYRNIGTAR
# Experiment: Radioligand ([3H]N-methylscopolamine) binding assay, membranes from CHO cells expressing human M4 receptor
# Details: Ki against human M4 receptor; membranes from CHO cells; tritiated N-methylscopolamine 1.5 nM; read-out: K
# Procedure, shortened: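 Competition binding used CHO-cell membranes expressing human M4 with 1.5 nM [3H]N-methylscopolamine and twelve compound concentrations ([…]). Incubation was 90 minutes at 37 °C in 50 mM HEPES, 100 mM NaCl, 5 mM MgCl2, 1 mM EDTA, pH 7.4. Bound ligand was collected by filtration onto PEI-treated glass fibre for Ki.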
row,pKi,Structure (SMILES)
1,> 8.00,"C[C@@H]1CN(c2ncc(C(F)(F)F)cn2)C[C@H](C)N1C(=O)NC1CC2(C1)CN(Cc1ccc(O)cc1)C2 [Compound 319, (2R,6S)-N-{2-[(4-hydroxyphenyl)methyl]-2-azaspiro[3.3]heptan-6-yl}-2,6-dimethyl-4-[5-(trifluoromethyl)pyrimidin-2-yl]piperazine-1-carboxamide]"
2,6.00 to 7.00,"COC(=O)c1ccc(CN2CC3(CC(NC(=O)N4[C@H](C)CN(c5ncc(C(F)(F)F)cn5)C[C@@H]4C)C3)C2)cc1 [Compound 320, methyl 4-[(6-{[(2R,6S)-2,6-dimethyl-4-[5-(trifluoromethyl)pyrimidin-2-yl]piperazine-1-carbonyl]amino}-2-azaspiro[3.3]heptan-2-yl)methyl]benzoate]"
3,6.00 to 7.00,"CC(=O)Nc1ccc(CN2CC3(CC(NC(=O)N4[C@H](C)CN(c5ncc(C(F)(F)F)cn5)C[C@@H]4C)C3)C2)cc1 [Compound 321, (2R,6S)-N-{2-[(4-acetamidophenyl)methyl]-2-azaspiro[3.3]heptan-6-yl}-2,6-dimethyl-4-[5-(trifluoromethyl)pyrimidin-2-yl]piperazine-1-carboxamide]"
4,7.00 to 8.00,"C[C@@H]1CN(c2ncc(C(F)(F)F)cn2)C[C@H](C)N1C(=O)NC1CC2(C1)CN(Cc1ccc(OC(F)F)cc1)C2 [Compound 322, (2R,6S)-N-(2-{[4-(difluoromethoxy)phenyl]meth-yl}-2-azaspiro[3.3]heptan-6-yl)-2,6-dimethyl-4-[5-(trifluoromethyl)pyrimidin-2-yl]piperazine-1-carboxamide]"
5,7.00 to 8.00,"C[C@@H]1CN(c2ncc(C(F)(F)F)cn2)C[C@H](C)N1C(=O)NC1CC2(C1)CN(Cc1ccc(C(F)(F)F)cc1)C2 [Compound 323, (2R,6S)-2,6-dimethyl-N-(2-{[4-(trifluoromethyl)phen-yl]methyl}-2-aza-spiro[3.3]heptan-6-yl)-4-[5-(trifluoromethyl)pyrimidin-2-yl]piperazine-1-carboxamide]"
6,> 8.00,"C[C@@H]1CN(c2ncc(C(F)(F)F)cn2)C[C@H](C)N1C(=O)NC1CC2(C1)CN(Cc1ccc(Cl)cc1)C2 [Compound 325, (2R,6S)-N-{2-[(4-chlorophenyl)methyl]-2-azaspiro[3.3]heptan-6-yl}-2,6-dimethyl-4-[5-(trifluoromethyl)pyrimidin-2-yl]piperazine-1-carboxamide]"
7,7.00 to 8.00,"C[C@@H]1CN(c2ncc(C(F)(F)F)cn2)C[C@H](C)N1C(=O)NC1CC2(C1)CN(CC13CC4CC(CC(C4)C1)C3)C2 [Compound 327, (2R,6S)-N-[2-(adamantan-1-ylmethyl)-2-azaspiro[3.3]heptan-6-yl]-2,6-dimethyl-4-[5-(trifluoromethyl)pyrimidin-2-yl]piperazine-1-carboxamide]"
8,7.00 to 8.00,"C[C@@H]1CN(c2ncc(C(F)(F)F)cn2)C[C@@H](C)N1C(=O)NC1CC2(C1)CN(Cc1ccc(F)cc1)C2 [Compound 328, (2R,6R)-N-{2-[(4-fluorophenyl)methyl]-2-azaspiro[3.3]heptan-6-yl}-2,6-dimethyl-4-[5-(trifluoromethyl)pyrimidin-2-yl]piperazine-1-carboxamide]"
9,6.00 to 7.00,"C[C@@H]1CN(c2ncc(C#N)cn2)C[C@H](C)N1C(=O)NC1CC2(C1)CN(Cc1ccc(F)cc1)C2 [Compound 330, (2R,6S)-4-(5-cyanopyrimidin-2-yl)-N-{2-[(4-fluorophenyl)methyl]-2-azaspiro[3.3]heptan-6-yl}-2,6-dimethylpiperazine-1-carboxamide]"
10,6.00 to 7.00,"C[C@@H]1CN(c2ncc(C(F)(F)F)cn2)C[C@H](C)N1C(=O)NC1CC2(C1)CN(CC1CC(F)(F)C1)C2 [Compound 333, (2R,6S)-N-{2-[(3,3-difluorocyclobutyl)methyl]-2-azaspiro[3.3]heptan-6-yl}-2,6-dimethyl-4-[5-(trifluoromethyl)pyrimidin-2-yl]piperazine-1-carboxamide]"
11,> 8.00,"CC(c1ccccc1)N1CC2(CC(NC(=O)N3[C@H](C)CN(c4ncc(C(F)(F)F)cn4)C[C@@H]3C)C2)C1 (stereo partly drawn) [Compound 334, (2R,6S)-2,6-dimethyl-N-[2-(1-phenylethyl)-2-azaspiro[3.3]heptan-6-yl]-4-[5-(trifluoromethyl)pyrimidin-2-yl]piperazine-1-carboxamide]"
12,7.00 to 8.00,"C[C@@H]1CN(c2ncc(C(F)(F)F)cn2)C[C@H](C)N1C(=O)NC1CC2(C1)CN(Cc1ccccc1O)C2 [Compound 337, (2R,6S)-N-{2-[(2-hydroxyphenyl)methyl]-2-azaspiro[3.3]heptan-6-yl}-2,6-dimethyl-4-[5-(trifluoromethyl)pyrimidin-2-yl]piperazine-1-carboxamide]"
13,> 8.00,"Cc1ccsc1CN1CC2(CC(NC(=O)N3[C@H](C)CN(c4ncc(C(F)(F)F)cn4)C[C@@H]3C)C2)C1 [Compound 338, (2R,6S)-2,6-dimethyl-N-{2-[(3-methylthiophen-2-yl)methyl]-2-azaspiro[3.3]heptan-6-yl}-4-[5-(trifluoromethyl)pyrimidin-2-yl]piperazine-1-carboxamide]"
14,> 8.00,"Cc1ccc(CN2CC3(CC(NC(=O)N4[C@H](C)CN(c5ncc(C(F)(F)F)cn5)C[C@@H]4C)C3)C2)s1 [Compound 339, (2R,6S)-2,6-dimethyl-N-{2-[(5-methylthiophen-2-yl)methyl]-2-azaspiro[3.3]heptan-6-yl}-4-[5-(trifluoromethyl)pyrimidin-2-yl]piperazine-1-carboxamide]"
15,> 8.00,"C[C@@H]1CN(c2ncc(C(F)(F)F)cn2)C[C@H](C)N1C(=O)NC1CC2(C1)CN(Cc1ccc(Cl)s1)C2 [Compound 340, (2R,6S)-N-{2-[(5-chlorothiophen-2-yl)methyl]-2-azaspiro[3.3]heptan-6-yl}-2,6-dimethyl-4-[5-(trifluoromethyl)pyrimidin-2-yl]piperazine-1-carboxamide]"
16,7.00 to 8.00,"C[C@@H]1CN(c2ncc(C(F)(F)F)cn2)C[C@H](C)N1C(=O)OC1(C(F)F)CC2(CN(Cc3ccccc3)C2)C1 [Compound 341, 2-benzyl-6-(difluoromethyl)-2-azaspiro[3.3]heptan-6-yl (2R,6S)-2,6-dimethyl-4-[5-(trifluoromethyl)pyrimidin-2-yl]piperazine-1-carboxylate]"
17,6.00 to 7.00,"C[C@@H]1CN(c2cnc(C(F)(F)F)cn2)C[C@H](C)N1C(=O)OC1(C(F)F)CC2(CN(Cc3ccccc3)C2)C1 [Compound 342, 2-benzyl-6-(difluoromethyl)-2-azaspiro[3.3]heptan-6-yl (2R,6S)-2,6-dimethyl-4-[5-(trifluoromethyl)pyrazin-2-yl]piperazine-1-carboxylate]"
18,7.00 to 8.00,"C[C@@H]1CN(c2ncc(C(F)(F)F)cn2)C[C@@H](C)N1C(=O)OC1(C(F)F)CC2(CN(Cc3ccccc3)C2)C1 [Compound 344, 2-benzyl-6-(difluoromethyl)-2-azaspiro[3.3]heptan-6-yl (2R,6R)-2,6-dimethyl-4-[5-(trifluoromethyl)pyrimidin-2-yl]piperazine-1-carboxylate]"
19,7.00 to 8.00,"C[C@@H]1CN(c2ncc(C(F)(F)F)cn2)[C@@H](C)CN1C(=O)OC1(C(F)F)CC2(CN(Cc3ccccc3)C2)C1 [Compound 346, 2-benzyl-6-(difluoromethyl)-2-azaspiro[3.3]heptan-6-yl (2R,5S)-2,5-dimethyl-4-[5-(trifluoromethyl)pyrimidin-2-yl]piperazine-1-carboxylate]"
20,6.00 to 7.00,"C[C@@H]1CN(c2cnc(C(F)(F)F)cn2)[C@@H](C)CN1C(=O)OC1(C(F)F)CC2(CN(Cc3ccccc3)C2)C1 [Compound 347, 2-benzyl-6-(difluoromethyl)-2-azaspiro[3.3]heptan-6-yl (2R,5S)-2,5-dimethyl-4-[5-(trifluoromethyl)pyrazin-2-yl]piperazine-1-carboxylate]"
21,7.00 to 8.00,"C[C@@H]1CN(c2ncc(C(F)(F)F)cn2)CCN1C(=O)OC1(C(F)F)CC2(CN(Cc3ccccc3)C2)C1 [Compound 349, 2-benzyl-6-(difluoromethyl)-2-azaspiro[3.3]heptan-6-yl (2R)-2-methyl-4-[5-(trifluoromethyl)pyrimidin-2-yl]piperazine-1-carboxylate]"
22,6.00 to 7.00,"C[C@@H]1CN(c2ncc(C(F)(F)F)cn2)C[C@H](C)N1C(=O)OC1(C)CC2(CN(Cc3ccccc3)C2)C1 [Compound 352, 2-benzyl-6-methyl-2-azaspiro[3.3]heptan-6-yl (2R,6S)-2,6-dimethyl-4-[5-(trifluoromethyl)pyrimidin-2-yl]piperazine-1-carboxylate]"
23,7.00 to 8.00,"C[C@@H]1CN(c2cnc(C(F)(F)F)cn2)C[C@H](C)N1C(=O)OC1(C)CC2(CN(Cc3ccccc3)C2)C1 [Compound 353, 2-benzyl-6-methyl-2-azaspiro[3.3]heptan-6-yl (2R,6S)-2,6-dimethyl-4-[5-(trifluoromethyl)pyrazin-2-yl]piperazine-1-carboxylate]"
24,7.00 to 8.00,"C[C@@H]1CN(c2ncc(C(F)(F)F)cn2)C[C@@H](C)N1C(=O)OC1(C)CC2(CN(Cc3ccccc3)C2)C1 [Compound 355, 2-benzyl-6-methyl-2-azaspiro[3.3]heptan-6-yl (2R,6R)-2,6-dimethyl-4-[5-(trifluoromethyl)pyrimidin-2-yl]piperazine-1-carboxylate]"

# — patent US20230129359A1, “MUSCARINIC RECEPTOR 4 ANTAGONISTS AND METHODS OF USE” (Neurocrine Biosciences, Inc., priority 2020, published 2023)
